Measurements from PubChem BioAssay (NCI).
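All cell lines were grown in 96-well plates and treated with compound for 48 hours. TGI is the concentration that stops growth completely.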

Experiments:
Assay in all cases: NCI-60 cell line screen, 48 h
M19-MEL melanoma = system: M19-MEL melanoma
NCI-H23 lung = system: NCI-H23 lung
MALME-3M melanoma = system: MALME-3M melanoma
SNB-78 CNS = system: SNB-78 CNS
HCC-2998 colon = system: HCC-2998 colon
HOP-92 NSCLC = system: HOP-92 NSCLC
NCI-H522 lung = system: NCI-H522 lung
SK-MEL-5 melanoma = system: SK-MEL-5 melanoma
SR leukemia = system: SR leukemia
DLD-1 colon = system: DLD-1 colon
OVCAR-5 ovarian = system: OVCAR-5 ovarian
OVCAR-8 ovarian = system: OVCAR-8 ovarian
HOP-62 NSCLC = system: HOP-62 NSCLC
DMS 273 small cell lung = system: DMS 273 small cell lung
HL-60(TB) leukemia = system: HL-60(TB) leukemia
UACC-257 melanoma = system: UACC-257 melanoma
786-0 renal = system: 786-0 renal
SF-295 CNS = system: SF-295 CNS
NCI-H226 lung = system: NCI-H226 lung
SF-268 CNS = system: SF-268 CNS
U251 CNS = system: U251 CNS
KM12 colon = system: KM12 colon
NCI-H460 lung = system: NCI-H460 lung
IGROV1 ovarian = system: IGROV1 ovarian
CAKI-1 renal = system: CAKI-1 renal
SK-OV-3 ovarian = system: SK-OV-3 ovarian
A549 NSCLC = system: A549 NSCLC
RPMI-8226 leukemia = system: RPMI-8226 leukemia
HCT-15 colon = system: HCT-15 colon
OVCAR-4 ovarian = system: OVCAR-4 ovarian
UO-31 renal = system: UO-31 renal
K-562 leukemia = system: K-562 leukemia
HCT-116 colon = system: HCT-116 colon
XF 498 CNS = system: XF 498 CNS
SF-539 CNS = system: SF-539 CNS
RXF 393 renal = system: RXF 393 renal
SN12C renal = system: SN12C renal
KM20L2 colon = system: KM20L2 colon
HT29 colon = system: HT29 colon
SNB-19 CNS = system: SNB-19 CNS
SW-620 colon = system: SW-620 colon
UACC-62 melanoma = system: UACC-62 melanoma
M14 melanoma = system: M14 melanoma
SK-MEL-28 melanoma = system: SK-MEL-28 melanoma
TK-10 renal = system: TK-10 renal
LXFL 529 NSCLC = system: LXFL 529 NSCLC
MOLT-4 leukemia = system: MOLT-4 leukemia
OVCAR-3 ovarian = system: OVCAR-3 ovarian
LOX IMVI melanoma = system: LOX IMVI melanoma
SNB-75 CNS = system: SNB-75 CNS
COLO 205 colon = system: COLO 205 colon
ACHN renal = system: ACHN renal
SK-MEL-2 melanoma = system: SK-MEL-2 melanoma
MDA-MB-435 = system: MDA-MB-435
NCI/ADR-RES ovarian = system: NCI/ADR-RES ovarian
DU-145 prostate = system: DU-145 prostate
MDA-MB-231 breast = system: MDA-MB-231 breast
EKVX NSCLC = system: EKVX NSCLC
PC-3 prostate = system: PC-3 prostate
T-47D breast = system: T-47D breast
BT-549 breast = system: BT-549 breast
A498 renal = system: A498 renal
HS 578T breast = system: HS 578T breast
MCF7 breast = system: MCF7 breast
CCRF-CEM leukemia = system: CCRF-CEM leukemia
MDA-N = system: MDA-N

Measured: TGI

O=NN1CCN=C1c1ccc([N+](=O)[O-])cc1
not listed: SK-MEL-2 melanoma | MDA-MB-435 | NCI/ADR-RES ovarian | DU-145 prostate | MDA-MB-231 breast | EKVX NSCLC | PC-3 prostate | T-47D breast | BT-549 breast | A498 renal | HS 578T breast | MCF7 breast | CCRF-CEM leukemia | MDA-N
> 100 µM: all other assays above

NC(=O)C(=O)C1C(=O)N(c2ccccc2)N=C1N (stereo not given)
not listed: M19-MEL melanoma | SK-MEL-5 melanoma | U251 CNS | RXF 393 renal | MDA-MB-435 | NCI/ADR-RES ovarian | DU-145 prostate | MDA-MB-231 breast | EKVX NSCLC | PC-3 prostate | T-47D breast | BT-549 breast | A498 renal | HS 578T breast | MCF7 breast | CCRF-CEM leukemia | MDA-N
> 100 µM: all other assays above

CSc1ccc(NC(=O)Nc2cc(C)ccn2)cc1
not listed: M19-MEL melanoma | SNB-78 CNS | DLD-1 colon | DMS 273 small cell lung | XF 498 CNS | KM20L2 colon | LXFL 529 NSCLC
> 100 µM: all other assays above
